Assays:
[1] = Solid stability test (acceleration test), 40° C./75% RH; assay type: physicochemical; conditions: for total mass of analogous substance: 4 weeks
Procedure: Solid stability was measured under the following conditions, with respect to monofumarate of Compound A, hemifumarate of Compound A, hemitartrate of Compound A and monophosphate of Compound A which were obtained in the Examples and the Reference Examples, when they were stored for 2 weeks or 4 weeks at 40° C./75% RH (sealed condition and opened condition).
Storage condition: 40° C./75% RH (Sealed and Opened) (Opened refers to a condition where a glass container has the lid removed, and is covered with a KimWipe).
Points of measurement: 2 weeks and 4 weeks
Storage amount: About 30 mg
Storage container: Brown glass container
Method of preparing sample solution: Sample was dissolved in 50% acetonitrile such that a concentration of the sample would be 0.4 mg/mL.
Mass of analogous substance in the sample solution was measured by HPLC analysis. Handling of the devices including data processing was based on the method and the process indicated in each device. (Device: Shimadzu Corporation SIL-HTc/LC-20AB)
Column: InertSustein C18, 4.6×150 mm, 3 μm, manufactured by GL Sciences Inc.
MS detection: ESI positive
Column temperature: 40° C.
Column flow rate: 1.0 mL/min
Mobile phase: A; 10 mmol/L phosphate buffer (pH 6.0): Acetonitrile mixed solution (17:3), B; Acetonitrile
Amount of injection: 5 μL
In the Table, A, B and C refer to percentages of the total mass of analogous substance of less than 0.1%, 0.1% or more and less than 0.5%, and 0.5% or more, respectively. Incidentally, those marked with * were measured at 2 weeks' time and the others were measured at 4 weeks' time.

[2] = target: recombinant human BTK protein (Homo sapiens (Human), UniProt Q06187); assay: Measurement of BTK inhibitory activity (in vitro); assay type: biochemical; conditions: ATP 45 μM, FL-Peptide 2 substrate
Chain of recombinant human BTK protein (Q06187 whole entry): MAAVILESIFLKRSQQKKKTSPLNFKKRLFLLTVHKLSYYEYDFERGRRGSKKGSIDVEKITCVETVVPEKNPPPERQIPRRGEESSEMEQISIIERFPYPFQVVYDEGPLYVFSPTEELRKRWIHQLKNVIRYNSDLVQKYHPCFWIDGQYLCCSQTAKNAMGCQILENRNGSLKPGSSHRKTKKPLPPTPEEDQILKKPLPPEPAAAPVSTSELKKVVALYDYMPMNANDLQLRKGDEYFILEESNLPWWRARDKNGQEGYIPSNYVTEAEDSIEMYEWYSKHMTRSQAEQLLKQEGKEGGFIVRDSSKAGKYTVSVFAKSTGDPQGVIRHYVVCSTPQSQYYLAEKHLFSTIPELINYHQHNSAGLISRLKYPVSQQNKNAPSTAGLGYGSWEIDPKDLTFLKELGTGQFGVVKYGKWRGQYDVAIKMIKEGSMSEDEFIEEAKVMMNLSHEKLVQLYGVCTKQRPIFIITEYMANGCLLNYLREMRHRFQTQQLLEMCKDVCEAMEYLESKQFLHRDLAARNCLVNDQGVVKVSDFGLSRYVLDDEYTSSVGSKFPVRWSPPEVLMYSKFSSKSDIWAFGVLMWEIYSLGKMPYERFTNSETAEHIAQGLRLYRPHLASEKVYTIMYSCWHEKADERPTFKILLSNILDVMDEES
Text: In a condition set for a method of measuring inhibitory activity in vitro of the compounds against BTK kinase activity, FL-Peptide 2 was used as a substrate, since it was described in a price list of LabChip (Registered trademark) series sample consumables of PerkinElmer Co., Ltd. that FL-Peptide 2 corresponded to a substrate peptide in a measurement of BTK kinase activity. The refined recombinant human BTK protein used in the test was purchased from Carna Biosciences, Inc.
With regard to the measurement of the inhibitory activity of the compounds, firstly, monofumarate of Compound A was diluted stepwise with dimethyl sulfoxide (DMSO). Subsequently, BTK protein, a substrate peptide (final concentration was 1 μM), magnesium chloride (final concentration was 10 mM), ATP (final concentration was 45 μM), and a DMSO solution of the test compounds (final concentration of DMSO was 5%) were added to a buffer solution for kinase reaction (20 mM HEPES (pH 7.5), 2 mM dithiotheitol, 0.01% Triton X-100), and after the solution was incubated for 40 minutes at 25° C., a kinase reaction was carried out. […] Finally, a substrate peptide that was not phosphorylated (S) and a phosphorylated peptide (P) were separated and detected by microchannel capillary electrophoresis with a LabChip EZ Reader II (PerkinElmer, Inc.). […]

[3] = Blood concentration measurement test after oral administration; conditions: mice
Procedure: These administration solutions were orally administered to mice (Balb/cA) which had been bred under a feeding condition, at a dose of 10 mL per 1 kg body weight, with a sonde for oral administration. After the administration, the mice were returned to a cage for mice and conditions were checked. Inside the cage was provided with a condition where water and food were accessible ad libitum. After 0.25, 0.5, 1, 2, 4 and 6 hours from the administration, the mice were anesthetized with isoflurane, and 60 μL of blood was collected from orbital sinus with a capillary blood collection tube.
The collected blood was ice cooled, and blood plasma was separated by a centrifugal operation. The mice after the blood collection was returned to an animal breeding cage, and conditions after recovery from the anesthesia were checked. When the last blood collection was finished, the mice were euthanized by cervical dislocation, after a level check of isoflurane anesthesia.
AUC0-6 hr, Cmax and Tmax were calculated by linear-log trapezoid method with Phoenix WinNonlin (v6.3.0) which is a software manufactured by Pharsight Corporation, from a concentration of Compound A in each blood plasma measured by MRM method with LC-MS/MS.

[4] = 50 mg/kg in terms of Compound A, 0.5% HPMC suspension, plasma Compound A

SMILES: C=CC(=O)N1CCC[C@@H](n2nc(C(=O)Nc3nc4ccccc4o3)c3c(N)ncnc32)C1.O=C(O)/C=C/C(=O)O [monofumarate of Compound A, (R)-1-(1-acryloylpiperidin-3-yl)-4-amino-N-(benzo[d]oxazol-2-yl)-1H-pyrazolo[3,4-d]pyrimidine-3-carboxamide.monofumarate]
- total mass of analogous substance ([1]; Opened): A (less than 0.1%)
- total mass of analogous substance ([1]; Sealed): A (less than 0.1%)
- solid stability (in words) ([1]; compared to hemitartrate or monophosphate): excellent solid stabilities
- IC50 [2]: 1.19 nM
- Cmax relative to that of Compound A ([3]; 50 mg/kg): about two fold
- AUC0-6 hr [3, 4]: 7.33 µM·h
- Cmax [3, 4]: 7.63 µM
- Tmax [3, 4]: 15 min

Source: patent publication US10280174B2, “Salt of fused pyrimidine compound and crystal thereof” (TAIHO PHARMACEUTICAL CO., LTD., priority 2015, dated 2019)
